According to ChEMBL document CHEMBL1201862, “PubChem BioAssay data set” (2004):
Calls of active or inactive are those of the source.

Key:
Ephrin type-A receptor 4 = Ephrin type-A receptor 4 (Mus musculus, UniProt Q03137); assay: EphA4 ligand-binding antagonists – biochemical, colorimetric, mouse EphA4, primary screen (AID 689); format: functional
[1] = target: T1, Probable nicotinate-nucleotide adenylyltransferase (Staphylococcus aureus (strain N315), UniProt P65502); format: functional, Staphylococcus aureus subsp. aureus N315;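 for IC50 Mean: confirmatory dose-response retesting of NadD inhibitor hits first found in an ultra-high-throughput screen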
[2] = target: T1, Probable nicotinate-nucleotide adenylyltransferase; format: functional, Staphylococcus aureus subsp. aureus N315; conditions: read-out: IC50_Mean
[3] = viability loss of HPDE-C7K cells – cell-based, fluorescence, HTS, primary screen (AID 431); format: functional; conditions: Homo sapiens
BJ [4] = assay: BJ-TERT-LT-ST fibroblast viability loss – cell-based, RAS-independent, luminescence, dose response (AID 1935); format: functional; conditions: Homo sapiens;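 note: BJ fibroblasts immortalized with TERT plus LT and ST oncogenes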
BJ [5] = assay: BJ-TERT fibroblast viability loss – cell-based, RAS-independent, luminescence, dose response (AID 1933); format: functional; conditions: Homo sapiens
[6] = loss of viability in HepG2 cells – cell-based, CellTiter-Glo, cherry-picked, cytotoxicity control for Shn3 inhibitor project, dose response (AID 624134); format: functional
[7] = reduction of Shn3 3'UTR-driven luciferase in osteoblasts – cell-based, Clone20 osteoblasts, firefly luciferase, cherry-picked, dose response (AID 624132); format: functional;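 note: firefly luciferase luminescence from reporter carrying the Shn3 3'UTR in osteoblasts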
[8] = DRD fibroblast viability loss – cell-based, non-viral oncogenic, luminescence, dose response (AID 1934); format: functional; conditions: Homo sapiens
[9] = HPDE-C7 pancreatic duct cell viability loss – fluorescence, HTS (AID 430); format: functional, cell-based; conditions: Homo sapiens
BJ [10] = assay: cells; format: functional, cell-based; conditions: Homo sapiens
[11] = non-specific 3'UTR reporter inhibition in Clone20-Shn3RL – cell-based, Renilla luciferase, cherry-picked, counter-screen for Shn3 inhibitor project, dose response (AID 624133); format: functional
[12] = general cell-killing toxicity readout – plate reader, dry powder samples, cytotoxicity control for PAX8 inhibitor project, dose response (AID 743021); format: functional, cell-based
[13] = HEK-293T viability loss after treatment – luminescence, T-cell screen hits, cytotoxicity control for TCR NF-kB inhibitor project, dose response (AID 489026); format: functional, cell-based;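 note: cells exposed to compound about 14 hours before the viability readout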
Paired box protein Pax-8 = Paired box protein Pax-8 (Homo sapiens, UniProt Q06710); assay: PAX8 transcriptional activity inhibition in RMG-I – RMG-I cells, luciferase, cherry-pick, dose response (AID 687027); format: functional, cell-based;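 note: luciferase reporter driven by Pax8 target thyroperoxidase promoter measured by SteadyGlo luminescence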
[14] = NIH3T3 cell viability loss – ATP luminescence, mouse fibroblasts, counter-screen, dose response (AID 2010); format: functional, cell-based;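 note: cells exposed to compound for about 90 hours before reading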
cells [15] = assay: cells
[16] = Trypanosoma cruzi growth suppression in host cells – NIH3T3 host cells, beta-gal luminescence, confirmation (AID 2044); format: functional, cell-based;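 note: intracellular parasites grown in NIH/3T3 mouse fibroblasts as host cells; luminescent beta-galactosidase reporter signal from transgenic T. cruzi replicating inside host cells; inhibitors lower the luminescence signal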
[17] = viability loss in HEK293 kidney cells – cell-based, cherry-picks, set 5, cytotoxicity control, dose response (AID 1053117); format: functional
[18] = viability loss in HepG2 hepatoma cells – cell-based, cherry-picks, set 5, cytotoxicity control, dose response (AID 1053118); format: functional
[19] = viability loss in A549 lung cancer cells – cell-based, cherry-picks, […], cytotoxicity control, dose response (AID 1053119); format: functional
[20] = toxicity to human hepatoma HepG2 cells – cell-based, cherry-picked samples, cytotoxicity control, dose response (AID 1159577); format: functional
[21] = P. falciparum Dd2 growth inhibitors, dose response, SYBR Green, cherry-picked samples (AID 1159567); format: functional, cell-based
Estrogen receptor beta = Estrogen receptor beta (Homo sapiens, UniProt Q92731);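 note: recombinant ER-beta bound to coactivator SRC1 peptide in presence of estradiol agonist; inhibitors block coactivator peptide binding and lower the FRET signal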
HEK293 = assay: EBV LMP1 TES2 canonical NF-kB signalling blockers – cell-based, HEK293, luciferase, cherry-pick, dose response (AID 588343); format: functional; conditions: Homo sapiens
Beta-galactosidase = Beta-galactosidase (Escherichia coli, UniProt Q8VNN2); assay: detection-enzyme interference by beta-gal modulators – biochemical, E. coli enzyme, set 3, artefact control for CCR6 antagonist project, dose response (AID 504712); format: functional
[22] = viability loss in human Jurkat cells – cell-based, luminescence, cytotoxicity control for P. falciparum gametocyte viability project, dose response (AID 1117277); format: functional;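 note: potency reflects loss of cellular ATP meaning fewer viable cells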
[23] = viability inhibitors of stage V gametocytes – luminescence, dose response (AID 1117278); format: functional, cell-based;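 note: gametocytes exposed to compound for 24 hours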
INS1 = assay: INS-1E survival protection against cytokine death – cell-based, luminescence, retest, dose response (AID 449756); format: functional; conditions: Rattus norvegicus;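 note: cell death triggered by IL-1 beta plus TNF-alpha plus IFN-gamma mixture; protective hits raise ATP signal compared with cytokine alone wells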
[24] = target: Sphingosine 1-phosphate receptor 2 (Homo sapiens, UniProt O95136); assay: Dose Response Cell Based Assay for Antagonists of the S1P2 Receptor. [Related pubchem assays: 856, 736 ]; format: functional
[25] = inhibition of ARNT PAS-B/TACC3 complex formation – biochemical, AlphaScreen, cherry-picked samples, confirmation (AID 651703); format: functional, Homo sapiens;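 note: His-tagged ARNT PAS-B domain paired with GST-TACC3 E629A dimer coactivator fragment; potency of inhibitors that break up the complex and lower AlphaScreen signal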
[26] = target: T2, Nuclear receptor subfamily 0 group B member 1 (Homo sapiens, UniProt P51843); format: functional, cell-based;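 note: HEK293T cells transfected with SF-1 and DAX-1 plus StAR promoter luciferase reporter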
T2 sequence (P51843 whole entry): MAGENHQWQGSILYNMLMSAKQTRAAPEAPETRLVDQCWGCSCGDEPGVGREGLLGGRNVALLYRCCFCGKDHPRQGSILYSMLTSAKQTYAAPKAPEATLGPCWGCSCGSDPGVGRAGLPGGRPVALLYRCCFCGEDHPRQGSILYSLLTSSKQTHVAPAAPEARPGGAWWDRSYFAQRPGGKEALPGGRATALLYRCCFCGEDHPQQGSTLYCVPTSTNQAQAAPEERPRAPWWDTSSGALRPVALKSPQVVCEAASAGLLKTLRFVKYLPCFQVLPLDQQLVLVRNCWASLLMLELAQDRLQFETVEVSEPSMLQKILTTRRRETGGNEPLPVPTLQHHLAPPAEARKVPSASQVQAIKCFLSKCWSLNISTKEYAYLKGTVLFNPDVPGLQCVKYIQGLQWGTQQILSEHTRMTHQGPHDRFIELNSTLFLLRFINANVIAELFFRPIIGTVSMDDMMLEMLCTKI

cells [27] = format: functional, cell-based

T1 sequence (P65502 whole entry): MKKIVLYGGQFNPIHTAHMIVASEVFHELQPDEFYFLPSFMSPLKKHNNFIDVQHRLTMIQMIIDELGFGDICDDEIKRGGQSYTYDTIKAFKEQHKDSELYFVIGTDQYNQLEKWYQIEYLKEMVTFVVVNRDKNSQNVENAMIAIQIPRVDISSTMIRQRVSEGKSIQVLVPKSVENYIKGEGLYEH
Chain of Paired box protein Pax-8 (Q06710 whole entry): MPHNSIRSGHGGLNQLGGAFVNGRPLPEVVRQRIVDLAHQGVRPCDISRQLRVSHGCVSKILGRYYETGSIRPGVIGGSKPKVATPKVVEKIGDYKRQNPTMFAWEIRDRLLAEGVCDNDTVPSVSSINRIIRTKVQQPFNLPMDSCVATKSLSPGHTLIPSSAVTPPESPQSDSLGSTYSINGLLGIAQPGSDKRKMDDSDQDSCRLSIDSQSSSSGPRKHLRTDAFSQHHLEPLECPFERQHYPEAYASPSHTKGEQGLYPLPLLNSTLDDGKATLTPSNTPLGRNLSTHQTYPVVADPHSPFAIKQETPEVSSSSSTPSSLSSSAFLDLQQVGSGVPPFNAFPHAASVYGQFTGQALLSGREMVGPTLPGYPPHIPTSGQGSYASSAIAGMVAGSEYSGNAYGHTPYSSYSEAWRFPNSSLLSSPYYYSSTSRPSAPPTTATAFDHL
Chain of Ephrin type-A receptor 4 (Q03137 whole entry): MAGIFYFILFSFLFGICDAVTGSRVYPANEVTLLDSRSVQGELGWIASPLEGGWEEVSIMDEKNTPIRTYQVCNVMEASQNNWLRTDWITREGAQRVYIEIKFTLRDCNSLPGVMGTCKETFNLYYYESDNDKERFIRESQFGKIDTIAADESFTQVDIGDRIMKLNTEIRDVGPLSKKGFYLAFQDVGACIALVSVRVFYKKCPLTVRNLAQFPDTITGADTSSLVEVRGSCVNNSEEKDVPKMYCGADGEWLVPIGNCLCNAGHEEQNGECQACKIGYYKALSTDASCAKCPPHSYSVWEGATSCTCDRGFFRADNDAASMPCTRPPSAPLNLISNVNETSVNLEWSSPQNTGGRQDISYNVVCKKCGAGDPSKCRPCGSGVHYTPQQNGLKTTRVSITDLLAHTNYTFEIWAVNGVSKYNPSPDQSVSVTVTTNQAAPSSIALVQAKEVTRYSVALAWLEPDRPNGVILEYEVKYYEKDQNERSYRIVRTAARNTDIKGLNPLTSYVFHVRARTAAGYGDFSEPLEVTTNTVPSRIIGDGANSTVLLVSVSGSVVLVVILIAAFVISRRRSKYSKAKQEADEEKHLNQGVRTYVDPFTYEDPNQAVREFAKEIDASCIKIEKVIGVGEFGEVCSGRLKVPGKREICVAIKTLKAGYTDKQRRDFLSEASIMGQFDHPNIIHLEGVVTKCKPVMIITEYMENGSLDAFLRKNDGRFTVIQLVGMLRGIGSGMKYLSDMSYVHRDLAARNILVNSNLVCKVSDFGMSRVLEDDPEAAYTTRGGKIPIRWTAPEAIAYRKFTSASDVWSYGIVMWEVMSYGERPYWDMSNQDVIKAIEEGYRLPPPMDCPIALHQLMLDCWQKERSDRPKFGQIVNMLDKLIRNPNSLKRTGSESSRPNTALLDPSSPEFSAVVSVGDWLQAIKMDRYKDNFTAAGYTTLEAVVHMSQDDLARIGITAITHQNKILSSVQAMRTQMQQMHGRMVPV
Chain of Beta-galactosidase (Q8VNN2 whole entry): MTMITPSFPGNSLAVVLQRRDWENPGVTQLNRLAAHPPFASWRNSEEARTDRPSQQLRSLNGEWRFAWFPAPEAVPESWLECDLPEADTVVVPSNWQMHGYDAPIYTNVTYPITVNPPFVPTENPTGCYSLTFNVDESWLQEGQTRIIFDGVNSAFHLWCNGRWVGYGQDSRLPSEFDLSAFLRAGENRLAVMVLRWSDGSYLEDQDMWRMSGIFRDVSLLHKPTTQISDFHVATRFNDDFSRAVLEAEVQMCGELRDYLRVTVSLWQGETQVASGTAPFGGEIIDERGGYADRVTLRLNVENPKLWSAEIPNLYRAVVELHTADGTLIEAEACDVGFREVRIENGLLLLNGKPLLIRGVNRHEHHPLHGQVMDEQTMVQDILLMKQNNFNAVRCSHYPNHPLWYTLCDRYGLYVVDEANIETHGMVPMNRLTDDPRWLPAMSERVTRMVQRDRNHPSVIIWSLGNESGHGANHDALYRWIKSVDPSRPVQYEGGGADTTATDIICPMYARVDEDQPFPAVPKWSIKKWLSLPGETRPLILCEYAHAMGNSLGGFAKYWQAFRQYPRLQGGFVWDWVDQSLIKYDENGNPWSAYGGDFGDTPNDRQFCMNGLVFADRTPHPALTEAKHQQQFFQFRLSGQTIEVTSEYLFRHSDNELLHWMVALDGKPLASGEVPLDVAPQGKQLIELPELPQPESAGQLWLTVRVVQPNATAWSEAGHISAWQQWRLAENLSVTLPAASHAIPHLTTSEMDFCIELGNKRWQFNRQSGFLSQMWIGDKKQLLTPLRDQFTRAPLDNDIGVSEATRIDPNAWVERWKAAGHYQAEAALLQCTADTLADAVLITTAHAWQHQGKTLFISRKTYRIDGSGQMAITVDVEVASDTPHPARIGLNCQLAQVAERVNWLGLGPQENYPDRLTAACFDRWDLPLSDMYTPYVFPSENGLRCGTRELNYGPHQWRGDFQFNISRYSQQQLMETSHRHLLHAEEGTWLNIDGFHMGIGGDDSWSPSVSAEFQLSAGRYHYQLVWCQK
Chain of Sphingosine 1-phosphate receptor 2 (O95136 whole entry, the tested form may be a part): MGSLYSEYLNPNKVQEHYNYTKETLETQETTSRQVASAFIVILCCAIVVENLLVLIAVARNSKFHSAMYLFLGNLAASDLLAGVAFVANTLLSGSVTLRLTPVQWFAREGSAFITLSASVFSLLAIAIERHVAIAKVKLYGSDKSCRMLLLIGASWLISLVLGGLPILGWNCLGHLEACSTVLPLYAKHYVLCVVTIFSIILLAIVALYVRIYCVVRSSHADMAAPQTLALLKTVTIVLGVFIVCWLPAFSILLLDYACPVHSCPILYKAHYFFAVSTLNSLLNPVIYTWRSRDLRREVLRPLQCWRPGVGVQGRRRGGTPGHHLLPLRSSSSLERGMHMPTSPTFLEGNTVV
Chain of Estrogen receptor beta (Q92731 whole entry): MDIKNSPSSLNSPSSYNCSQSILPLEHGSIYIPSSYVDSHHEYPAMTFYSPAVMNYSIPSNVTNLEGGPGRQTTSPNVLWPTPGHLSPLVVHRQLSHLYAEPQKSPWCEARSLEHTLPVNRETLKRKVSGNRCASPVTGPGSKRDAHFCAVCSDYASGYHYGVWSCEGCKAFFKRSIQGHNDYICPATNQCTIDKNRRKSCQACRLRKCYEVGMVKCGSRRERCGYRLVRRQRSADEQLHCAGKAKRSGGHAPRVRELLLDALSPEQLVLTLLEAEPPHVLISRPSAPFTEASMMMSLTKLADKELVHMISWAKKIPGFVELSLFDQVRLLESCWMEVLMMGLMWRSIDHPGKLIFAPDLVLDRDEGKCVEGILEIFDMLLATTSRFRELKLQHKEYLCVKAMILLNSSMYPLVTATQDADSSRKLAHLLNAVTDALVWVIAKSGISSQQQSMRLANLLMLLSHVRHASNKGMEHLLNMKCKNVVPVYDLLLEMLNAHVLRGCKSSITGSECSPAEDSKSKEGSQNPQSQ

In the case of CC(C)CC(C(=O)Nc1oc(-c2ccco2)c(-c2ccco2)c1C#N)N1C(=O)c2ccccc2C1=O (configuration not stated), the IC50 (Ephrin type-A receptor 4) is reported as > 100 µM (not active), the IC50 [1] is reported as 16.4 µM (active) and the IC50 [2] is reported as 53.1 µM (active).
For COc1cccc(N2CCN(c3ncnc4c3cnn4-c3ccc(C)cc3C)CC2)c1, the EC50 [3] was 3.17 µM (active), the EC50 (BJ [4]) was > 150 µM (inconclusive) and the EC50 (BJ [5]) was 14.4 µM (active). For the same compound, the AC50 [6] was 37.2 µM (active), the AC50 [7] was 4.65 µM (active) and the EC50 [8] was 11 µM (active). The EC50 [9] was 3.78 µM (active), the EC50 (BJ [10]) was 16.8 µM (active) and the AC50 [11] was 4.03 µM (active). For the same compound, the AC50 [12] was 17.5 µM (active), the IC50 [13] was 3.73 µM (active) and the AC50 (Paired box protein Pax-8) was 6.38 µM (active).
In the case of CCc1ccc(CN2CCCC(CCC(=O)N3CCN(c4ccccn4)CC3)C2)o1 (configuration not stated), the EC50 [14] is reported as > 60 µM (not active), the EC50 (cells [15]) is reported as 21 nM (active) and the EC50 [16] is reported as < 100 nM (active).
With CO[C@@H]1CN(C)C(=O)c2ccc(NC(=O)c3ccc(-c4ccccc4)cc3)cc2OC[C@H](C)NC[C@@H]1C the AC50 [17] was 18.1 µM (active), the AC50 [18] was 12.2 µM (active) and the AC50 [19] was 16.2 µM (active). The AC50 [20] was 8.05 µM (active) and the AC50 [21] was 4.99 µM (active).
For C=CCN1C(=O)NC(=O)/C(=C(/CC)NCc2cccnc2)C1=O, the IC50 (Estrogen receptor beta) was > 50 µM (not active).
With COc1ccc(N2C(=O)CC(Sc3nnc(-c4ccccc4)o3)C2=O)cc1 (configuration not stated) the AC50 [12] was 44.9 µM (active), the AC50 (HEK293) was 19.6 µM (active) and the IC50 (Beta-galactosidase) was > 66.6 µM (inactive). For the same compound, the AC50 (Paired box protein Pax-8) was 10.4 µM (active).
With NCCN1CCN(CCN)CC1 the IC50 [22] was > 83.4 µM (inactive) and the IC50 [23] was > 109 µM (inactive).
In the case of COc1ccc(Cl)cc1C(=O)CSc1nnnn1C1CCCCC1, the IC50 [22] is reported as 10.9 µM (inactive) and the IC50 [23] is reported as > 109 µM (inactive).
With COc1ccc(OC)c(NC(=O)CSc2ncnc3c2cnn3-c2ccccc2Cl)c1 the AC50 (INS1) was 2.15 µM (active) and the IC50 [24] was 3.67 µM (active).
For COc1ccc(-c2oc3cc(O)c(OC)c(O)c3c(=O)c2OC)cc1O [CENTAUREIDIN], the AC50 [25] was 101 µM (active), the IC50 [26] was 35 µM (inactive) and the IC50 (cells [27]) was > 67.5 µM (inactive).
